Values of other authors, collected in patent US20250287953A1 (CHEMICEUTICAL INC., priority 2021, published 2025).

Substance: zinc pyrithione
- acute oral toxicity to rodents LD50 (50% lethal dose): 269 mg/kg
